Data taken from patent publication US8871789B2, “Method of preventing or treating viral infection” (The United States of America, as represented by the …, priority 2010, dated 2014).
pIC50: −log10 of the molar value.

Molecular target: T1, JMJD2E (Homo sapiens, UniProt B2RXH2)
T1 sequence (B2RXH2 1-506): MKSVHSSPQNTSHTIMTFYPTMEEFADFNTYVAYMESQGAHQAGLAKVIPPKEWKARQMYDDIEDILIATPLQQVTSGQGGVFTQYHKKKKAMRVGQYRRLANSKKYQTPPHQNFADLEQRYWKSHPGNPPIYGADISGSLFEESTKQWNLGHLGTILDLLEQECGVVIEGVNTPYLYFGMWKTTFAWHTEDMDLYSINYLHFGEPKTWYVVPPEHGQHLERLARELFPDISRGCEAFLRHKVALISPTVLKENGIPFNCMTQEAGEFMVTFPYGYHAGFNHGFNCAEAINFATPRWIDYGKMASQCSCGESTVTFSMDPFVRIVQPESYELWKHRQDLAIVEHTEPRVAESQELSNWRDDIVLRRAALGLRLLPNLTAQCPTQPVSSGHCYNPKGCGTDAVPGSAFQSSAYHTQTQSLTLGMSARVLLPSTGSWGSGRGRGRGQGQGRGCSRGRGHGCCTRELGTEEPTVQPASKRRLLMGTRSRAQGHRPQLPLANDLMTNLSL
Assay: AlphaLISA assay, JMJD2E histone demethylase inhibition
Assay type: biochemical
Details: not given

| pIC50 | Compound |
| --- | --- |
| 5.76 | O=C(O)c1ccc(O)c2ncc(N3CCOCC3)cc12 [Compound 11] |
| 5.80 | NC1CCN(c2cnc3c(O)ccc(C(=O)O)c3c2)CC1 [Compound 13] |
| 5.65 | O=C(O)c1ccc(O)c2ncc(N3CCCC3)cc12 [Compound 14] |
| 5.75 | O=C(O)c1ccc(O)c2ncc(NC3CCNC3)cc12 (stereo not shown) [Compound 15] |
| 5.93 | N[C@@H]1CCN(c2cnc3c(O)ccc(C(=O)O)c3c2)C1 [Compound 16] |
| 5.31 | NC(=O)c1cccc(-c2cnc3c(O)ccc(C(=O)O)c3c2)c1 [Compound 28] |

| Compound | pIC50 |
| --- | --- |
| CN1CCN(c2cnc3c(O)ccc(C(=O)O)c3c2)CC1 [Compound 10] | 5.65 |
| O=C(O)c1ccc(O)c2ncc(C3CCNCC3)cc12 [Compound 12] | 5.88 |
| O=C(O)c1ccc(O)c2ncc(N3CC4CNCC4C3)cc12 (stereo not shown) [Compound 17] | 5.83 |

Same assay, conditions: Table 2; JMJD2E; AlphaLISA, in triplicate; read-out: IC50

| pIC50 | Compound |
| --- | --- |
| 4.92 | CN(C)CCCNC(=O)c1ccc(-c2cnc3c(O)cccc3c2)cc1 [Compound 3] |
| 5.79 | O=C(c1ccc(-c2cc(O)c3ncccc3c2)cc1)N1CCNCC1 [Compound 5] |
| 5.37 | CN1CCN(C(=O)c2cccc(-c3cc(O)c4ncccc4c3)c2)CC1 [Compound 6] |
| 5.91 | O=C(NCCCN1CCNCC1)c1cccc(-c2cc(O)c3ncccc3c2)c1 [Compound 7] |
| 6.00 | CN(C)CC1CCN(C2CCN(C(=O)c3cccc(-c4cc(O)c5ncccc5c4)c3)CC2)CC1 [Compound 8] |
| 5.82 | CN(C)CCCN1CCCN(C(=O)c2cccc(-c3cc(O)c4ncccc4c3)c2)C1 [Compound 9] |

| Compound | pIC50 |
| --- | --- |
| O=C(O)c1ccnc2c(O)cccc12 [Compound 2] | 5.51 |

Same assay, conditions: Table 3; JMJD2E; AlphaLISA, in triplicate; read-out: IC50

| pIC50 | Compound |
| --- | --- |
| 5.30 | O=C(O)c1ccc(O)c2ncc(N3CCN(Cc4ccccc4)CC3)cc12 [Compound 18] |
| 5.38 | O=C(O)c1ccc(O)c2ncc(-c3ccc(N4CCOCC4)cc3)cc12 [Compound 19] |
| 5.29 | O=C(O)c1ccc(O)c2ncc(-c3cccc(N4CCOCC4)c3)cc12 [Compound 20] |
| 5.68 | O=C(O)c1ccc(O)c2ncc(NCC3CCCN(CCc4ccccc4)C3)cc12 (stereo not shown) [Compound 21] |
| 5.33 | O=C(O)c1ccc(O)c2ncc(N3CCCCC3CCc3ccccn3)cc12 (stereo not shown) [Compound 22] |
| 5.44 | O=C(O)c1ccc(O)c2ncc(-c3ccc(C(=O)N4CCNCC4)cc3)cc12 [Compound 23] |
| 5.33 | CN1CCN(C(=O)c2ccc(-c3cnc4c(O)ccc(C(=O)O)c4c3)cc2)CC1 [Compound 24] |
| 5.85 | CN(C)CCCNC(=O)c1ccc(-c2cnc3c(O)ccc(C(=O)O)c3c2)cc1 [Compound 25] |
| 5.68 | O=C(O)c1ccc(O)c2ncc(N3CCCN(C4CCCC4)CC3)cc12 [Compound 26] |
| 5.77 | O=C(O)c1ccc(O)c2ncc(N3CCCN(CCCc4ccncc4)CC3)cc12 [Compound 27] |

Test system: HSV-1
Assay: not given
Assay type: cell-based, mouse
Details: 100 mM ACV or 50 mM ML324, 48 hours

| Compound | isolated UL29+ neurons relative to DMSO |
| --- | --- |
| Nc1nc2c(ncn2COCCO)c(=O)[nH]1 [ACV, acyclovir, reference compound] | reduced number |

Test system: HSV-1
Assay: not given
Assay type: cell-based, Balb/c mice
Details: 2 mM DMOG, 2 mM TCP or ACV, 48 hours; FIG. 11
Procedure: FIG. 18 is a dot plot showing latently infected ganglia that were explanted in the presence of DMSO, ACV (100 mM), or ML324 (50 mM) for 48 hrs. Viral yields were determined from one half of each ganglia at 48 hrs (DMSO, ACV, ML324) and from the other half of each ganglia after drug reversal for an additional 72 hrs (ACV-R, ML324-R) [Wilcoxon matched pairs signed rank test, ACV vs ACV-R n=8, ML324 vs ML324-R n=10]. Data are means±SEM.
FIG. 19 is a dot plot showing viral yields from HSV-1 latently infected trigeminal ganglia that were explanted in the presence of DMSO, or 2 mM DMOG or 50 mM ML324 for 48 hours (DMSO versus DMOG: P=0.0015, Wilcoxon matched-pairs signed rank test; n=12; DMSO versus ML324: P<0.0001; n=20). Data are means±SEM.
Viral yields decrease from HSV-1 latently infected ganglia explanted in the presence of LSD1 or JMJD2 inhibitors (FIG. 11). Balb/c mice were infected with 5×10^6 PFU HSV-1 (strain F) per eye after corneal scarification. Latently infected mice were sacrificed 45 days post clearance of the primary infection and trigeminal ganglia were rapidly explanted into culture in the presence of 2 mM DMOG, 2 mM TCP, or control (DMSO or ACV, acyclovir) for 48 hours. Post explant incubation, the ganglia were homogenized and briefly sonicated. The reactivated viral yield of each ganglia was determined by titering the clarified supernatant on Vero cells. Statistical comparisons were made using Wilcoxon signed rank test (paired ganglia) with a statistical significance of <0.05. Each data point was the result of a single ganglia divided and treated in the presence and absence of DMSO and DMOG or DMSO and TCP. Therefore, a Wilcoxon signed rank test was used to assess differences between each treated and untreated sample. The significant difference between DMSO control and DMOG was p=0.0018. This test used an exact p-value for small sample sizes with an a level of 0.05. n=20. Analyses were made using Prism (V5.0a) and are expressed as the mean+/−s.e.m.

| Compound | viral yield from explanted latently infected ganglia |
| --- | --- |
| N[C@@H]1C[C@H]1c1ccccc1 (racemic) [TCP, tranylcypromine] | decreases |
| Nc1nc2c(ncn2COCCO)c(=O)[nH]1 [ACV, acyclovir, reference compound] | No viral yields |

Test system: HSV-1
Assay: Plaque assay of Vero cells infected with HSV-1
Assay type: cell-based
Parameters: # Plaques: dose or concentration left out as unconfirmed
Details: MOI .001; 12 hours infection, then ACV or ML324 for 48 hours
Procedure: ML324 was ˜75-fold more efficient than DMOG. Additionally, ML324 (i) reduced viral yields in a dose-dependent manner (˜5 logs at 50 mM, FIG. 14); (ii) blocked viral IE gene transcription and reduced viral yields when cells were infected at high multiplicity of infection (MOI; FIGS. 15 and 16); and (iii) suppressed IE gene transcription, even when added at times after infection (>50% reduction at 2 hours after infection; FIG. 17). As further evidence for the efficacy of ML324, cells were infected with HSV to allow for a productive cycle of infection, followed by treatment with DMSO, ACV, or ML324.

| Compound | # Plaques |
| --- | --- |
| Nc1nc2c(ncn2COCCO)c(=O)[nH]1 [ACV, acyclovir, reference compound] | 1 |

Same assay, conditions: MOI .01; 12 hours infection, then ACV or ML324 for 48 hours

| Compound | # Plaques |
| --- | --- |
| Nc1nc2c(ncn2COCCO)c(=O)[nH]1 [ACV, acyclovir, reference compound] | 8 |
